Data reported in paper PMC3914206.

Tests used:
Assay type in all cases: binding
Settings in all cases: Compound Concentration 10 µM
[1] = molecular target: T1, panel of 442 kinases (Homo sapiens, UniProt O95747)
T1 construct: purchased KINOMEscan
Description: (§1) We assessed the selectivity of members of this scaffold using the KINOMEscan methodology across a near comprehensive panel of 442 kinases [[18,27]].

[2] = molecular target: T2, panel of 442 kinases (Homo sapiens, UniProt P10721, A829P)
T2 construct: purchased KINOMEscan
T2 sequence (P10721 26-976 A829P): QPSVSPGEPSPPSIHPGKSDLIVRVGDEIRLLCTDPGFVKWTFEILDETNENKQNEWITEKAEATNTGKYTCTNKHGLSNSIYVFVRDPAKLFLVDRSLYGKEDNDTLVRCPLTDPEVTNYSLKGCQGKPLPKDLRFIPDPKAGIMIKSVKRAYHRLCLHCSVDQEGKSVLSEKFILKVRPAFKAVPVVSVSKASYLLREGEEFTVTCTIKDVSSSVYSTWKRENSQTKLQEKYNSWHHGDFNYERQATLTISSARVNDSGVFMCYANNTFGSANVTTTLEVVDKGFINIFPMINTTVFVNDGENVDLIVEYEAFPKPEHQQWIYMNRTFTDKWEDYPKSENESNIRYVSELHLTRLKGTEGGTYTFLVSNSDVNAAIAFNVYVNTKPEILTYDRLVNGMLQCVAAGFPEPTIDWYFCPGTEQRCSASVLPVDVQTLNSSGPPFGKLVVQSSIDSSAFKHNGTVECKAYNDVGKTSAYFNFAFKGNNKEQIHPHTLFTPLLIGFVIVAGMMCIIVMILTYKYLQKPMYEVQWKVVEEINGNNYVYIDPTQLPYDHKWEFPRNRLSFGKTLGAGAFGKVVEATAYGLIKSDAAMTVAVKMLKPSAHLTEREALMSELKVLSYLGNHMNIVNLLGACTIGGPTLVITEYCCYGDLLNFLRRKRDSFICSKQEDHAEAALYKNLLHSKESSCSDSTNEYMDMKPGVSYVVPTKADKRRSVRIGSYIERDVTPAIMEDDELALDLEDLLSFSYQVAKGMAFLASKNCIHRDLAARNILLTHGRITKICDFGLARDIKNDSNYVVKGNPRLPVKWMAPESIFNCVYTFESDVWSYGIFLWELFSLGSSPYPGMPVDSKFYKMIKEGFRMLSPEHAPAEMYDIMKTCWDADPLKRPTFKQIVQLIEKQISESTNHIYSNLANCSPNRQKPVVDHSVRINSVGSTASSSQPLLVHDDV
Description: as §1

[3] = molecular target: T3, panel of 442 kinases (Homo sapiens, UniProt Q7KZI7)
T3 construct: purchased KINOMEscan
T3 sequence (Q7KZI7 whole entry): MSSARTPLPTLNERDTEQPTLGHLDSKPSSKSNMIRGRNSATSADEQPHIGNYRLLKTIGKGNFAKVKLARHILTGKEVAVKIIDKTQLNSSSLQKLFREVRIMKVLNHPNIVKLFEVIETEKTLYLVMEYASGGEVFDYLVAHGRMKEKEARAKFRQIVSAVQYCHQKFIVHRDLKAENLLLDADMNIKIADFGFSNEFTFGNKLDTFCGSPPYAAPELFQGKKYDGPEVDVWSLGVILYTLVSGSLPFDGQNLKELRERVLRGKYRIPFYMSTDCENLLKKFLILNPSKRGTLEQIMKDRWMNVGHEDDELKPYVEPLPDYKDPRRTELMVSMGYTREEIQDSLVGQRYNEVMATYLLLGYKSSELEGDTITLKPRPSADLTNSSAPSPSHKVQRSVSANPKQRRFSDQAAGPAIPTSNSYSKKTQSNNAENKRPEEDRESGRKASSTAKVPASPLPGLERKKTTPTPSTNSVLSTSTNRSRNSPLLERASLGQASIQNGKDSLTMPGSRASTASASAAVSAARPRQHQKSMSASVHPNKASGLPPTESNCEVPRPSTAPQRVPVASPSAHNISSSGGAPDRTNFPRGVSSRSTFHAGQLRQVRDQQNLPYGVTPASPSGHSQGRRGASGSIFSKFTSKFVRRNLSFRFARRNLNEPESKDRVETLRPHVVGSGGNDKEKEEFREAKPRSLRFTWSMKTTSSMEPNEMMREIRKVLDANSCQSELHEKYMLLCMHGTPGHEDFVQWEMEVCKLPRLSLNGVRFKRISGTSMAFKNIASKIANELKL
Description: as §1

T1 sequence (O95747 whole entry): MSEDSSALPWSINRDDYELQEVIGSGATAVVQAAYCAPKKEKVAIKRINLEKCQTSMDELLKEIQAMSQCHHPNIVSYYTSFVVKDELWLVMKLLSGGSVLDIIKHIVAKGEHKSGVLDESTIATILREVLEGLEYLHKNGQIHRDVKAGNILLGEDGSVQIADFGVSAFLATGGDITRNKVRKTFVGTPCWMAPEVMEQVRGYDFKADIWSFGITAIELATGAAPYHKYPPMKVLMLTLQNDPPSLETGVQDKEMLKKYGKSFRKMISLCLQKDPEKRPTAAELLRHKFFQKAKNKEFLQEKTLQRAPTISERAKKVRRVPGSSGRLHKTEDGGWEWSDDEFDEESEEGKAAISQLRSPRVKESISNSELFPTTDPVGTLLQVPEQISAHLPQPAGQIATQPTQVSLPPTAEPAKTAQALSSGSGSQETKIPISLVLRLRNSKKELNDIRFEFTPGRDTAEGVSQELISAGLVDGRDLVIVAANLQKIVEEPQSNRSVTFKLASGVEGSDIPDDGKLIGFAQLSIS

Compound | KINOMEscan: OSR1 [1] | KINOMEscan: KIT(A829P) [2] | KINOMEscan: MARK2 [3]
COc1cc(C(=O)N2CCC(N3CCN(C)CC3)CC2)ccc1Nc1ncc2c(n1)N(C)c1ccccc1C(=O)N2C [15 (LRRK2-IN-1)] | 88 | 100 | 100
CCOc1cc(C(=O)N2CCC(N3CCN(C)CC3)CC2)ccc1Nc1ncc2c(n1)N(C1CCCC1)c1ccccc1C(=O)N2C [Compound 26] | 99 | 74 | 96
COc1cc(C(=O)N2CCC(N3CCN(C)CC3)CC2)ccc1Nc1ncc2c(n1)N1CCc3cccc(c31)C(=O)N2C [Compound 24] | 100 |  | 
COc1cc(C(=O)N2CCC(N3CCN(C)CC3)CC2)ccc1Nc1ncc2c(n1)N(C1CCCC1)c1ccccc1C(=O)N2C [Compound 25, 11-cyclopentyl-2-((2-methoxy-4-(4-(4-methylpiperazin-1-yl)piperidine-1-carbonyl)phenyl)amino)-5-methyl-5H-benzo[e]pyrimido[5,4-b][1,4]diazepin-6(11H)-one] | 100 | 95 | 98
